Data set [1] deals with Ba/F3 (KRAS-G12C-H95Q) cells (Homo sapiens, UniProt P01116, G12C/H95Q, cells depend on it). In words: Proliferation experiment of Ba/F3 (KRAS-G12C-H95Q) cells. The data set is classed as cell-based. To be noted: 72 hours, Cell Titer-Glo, read-out: Test Example 4 IC50. On the procedure:
Engineered cell strain Ba/F3 (KRAS-G12C-H95Q) was a cell strain constructed by the inventors according to the methods described in Warmuth M. et al, Curr Opin Oncol. […] The cells were grown at 37° C. in a humidified incubator with […].
(§1) According to the solution described in Cell Titer-Glo Luminescent cell Viability Assay (Promega catalog number #G7570) of Promega Corporation, the number of living cells in the culture was detected. 90 μL of cells (3,000 cells/well) were cultured in a growth medium in a Corning black transparent bottom 96-well plate and were cultured overnight in a 5% CO2 humidified incubator at 37° C. The compound diluted serially in 100% DMSO was added to the cells by a pipette, and the cells were cultured for another 72 hours. 100 μL of the well-mixed Cell Titer-Glo reagent was added to the cells in the 96-well culture plate to lyse the cells and gently mixed. Subsequently, […] was detected on an Envision microplate detector, and the data of each compound was obtained. Finally, the data was input into a suitable software package (such as Prism) for curve fitting analysis.
A general note: Cellular ATP, detected with luciferase, serves as a proxy for viable cell number.

Data set [2] concerns the target Ba/F3 (KRAS-G12C-Q99L) cells (Homo sapiens, UniProt P01116, G12C/Q99L, cells depend on it). In words: Proliferation experiment of Ba/F3 (KRAS-G12C-Q99L) cells. The data set is classed as cell-based. The settings on record: 72 hours, Cell Titer-Glo, read-out: Test Example 6 IC50. On the procedure: Engineered cell strain Ba/F3 (KRAS-G12C-Q99L) was a cell strain constructed by the inventors according to the methods described in Warmuth M. et al, Curr Opin Oncol. […] The cells were grown at 37° C. in a humidified incubator with 5% CO2.
as §1

Data set [3] deals with Ba/F3 (KRAS-G12C-Y96C) cells (Homo sapiens, UniProt P01116, G12C/Y96C, cells depend on it). In words: Proliferation experiment of Ba/F3 (KRAS-G12C-Y96C) cells. The data set is classed as cell-based. To be noted: 72 hours, Cell Titer-Glo, read-out: Test Example 3 IC50. On the procedure: Engineered cell strain Ba/F3 (KRAS-G12C-Y96C) was a cell strain constructed by the inventors according to the methods described in Warmuth M. et al, Curr Opin Oncol. […] The cells were grown at 37° C. in a humidified incubator with […].
Ba/F3 (KRAS-G12C-Y96C) cells, sequence (P01116 whole entry G12C/Y96C): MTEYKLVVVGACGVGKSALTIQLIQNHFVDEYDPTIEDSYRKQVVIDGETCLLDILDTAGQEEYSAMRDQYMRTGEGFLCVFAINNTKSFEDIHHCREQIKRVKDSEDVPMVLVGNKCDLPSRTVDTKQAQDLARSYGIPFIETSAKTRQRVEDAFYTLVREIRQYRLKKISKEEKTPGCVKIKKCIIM
as §1, with “[…]” for “5%”

For data set [4], the system named is NCI-H23 cells (KRAS G12C mutant cell line). In words: Proliferation experiment of NCI-H23 cells (Cell Titer-Glo). The data set is classed as cell-based. To be noted: Homo sapiens, 72 hours, read-out: Test Example 2 IC50. Here is the method: Human lung cancer cell line NCI-H23 (ATCC, CRL-5800) was a KRAS G12C mutant cell line.
as §1, with “(8,000” for “(3,000”

The test system of data set [5] is NCI-H358 cells (KRAS G12C mutant cell line). In words: Proliferation experiment of NCI-H358 cells (Cell Titer-Glo). The data set is classed as cell-based. The settings on record: Homo sapiens, 72 hours, read-out: Test Example 1 IC50. Here is the method:
as §1, with “(8,000” for “(3,000”

A short description of data set [6]: In vitro human liver microsome stability experiment. The data set is classed as in vitro ADME. To be noted: human liver microsomes; for half-life / microsomal CLint: 1 mg/mL microsome protein, NADPH, 37° C.; for microsomal CLint: read-out: CLint(mic); for CLint scaled: scaled to liver. On the procedure: Eight 96-well incubation plates were prepared, named [NT], Blank60, and NCF60, respectively. […] No compound to be tested or control compound was added to the Blank60 plate and samples were taken after 60 minutes of incubation. The NCF60 plate, in which a potassium phosphate buffer was used instead of an NADPH regeneration system solution (Sigma, N0505), was incubated for 60 minutes. […] Only the working solution of microsomes was added to the Blank60 plate, and the incubation plates Blank60, T5, T15, T30, T45, and T60 except TO and NCF60 were then placed in a water bath at 37° C. for pre-incubation for about 10 minutes. To the TO plate sample, 600 μL of a stop solution (acetonitrile:methanol (95:5, v/v) solution containing 100 ng/mL tolbutamide (Sigma, T0891)) was added first, and then an NADPH regeneration system working solution was added. 98 μL of a potassium phosphate buffer was added to each well of the NCF60 plate and incubated for 60 minutes. After the pre-incubation in the incubation plates Blank60, T5, T15, T30, T45, and T60 was complete, 98 μL of the NADPH regeneration system working solution was added to each sample well to initiate the reaction. After an appropriate incubation time (such as 5, 15, 30, 45, and 60 minutes), 600 μL of the stop solution was added to each sample well and control sample well in the Blank60, […] the reaction. All the sample plates were shaken evenly and centrifuged at 3220×g for 20 minutes. 200 μL of each test sample supernatant was taken and diluted into 200 μL of an aqueous solution containing 0.3% formic acid for LC-MS/MS analysis, and 100 μL of the control sample supernatant was taken and diluted into 300 μL of pure water for LC-MS/MS analysis. Calculations were carried out according to the following formulas: […]
On the technique in general: Microsomes from liver hold many membrane-bound enzymes, among them those of drug oxidation.

The target of data set [7] is Ba/F3 (KRAS-G12C-R68S) cells (Homo sapiens, UniProt P01116, G12C/R68S, cells depend on it). In words: Proliferation experiment of Ba/F3 (KRAS-G12C-R68S) cells. The data set is classed as cell-based. The settings on record: 72 hours, Cell Titer-Glo, read-out: Test Example 5 IC50. On the procedure:
Engineered cell strain Ba/F3 (KRAS-G12C-R68S) was a cell strain constructed by the inventors according to the methods described in Warmuth M. et al, Curr Opin Oncol. […] The cells were grown at 37° C. in a humidified incubator with 5% CO2.
as §1

Results on five molecules are retold here after patent publication US20250154156A1, “QUINAZOLINE DERIVATIVE AS KRAS G12C MUTATION INHIBITOR” (Shenzhen Forward Pharmaceuticals Co., Limited, priority 2022, published 2025).

Ba/F3 (KRAS-G12C-Q99L) cells, sequence (P01116 whole entry G12C/Q99L): as the sequence (P01116 whole entry G12C/Y96C) above, with C96Y, Q99L counted along it
Ba/F3 (KRAS-G12C-R68S) cells, sequence (P01116 whole entry G12C/R68S): as the sequence (P01116 whole entry G12C/Y96C) above, with R68S, C96Y counted along it
Ba/F3 (KRAS-G12C-H95Q) cells, sequence (P01116 whole entry G12C/H95Q): as the sequence (P01116 whole entry G12C/Y96C) above, with H95Q, C96Y counted along it

Take `C#Cc1cccc2cccc(-c3c(F)cc4c(N5CCN(C(=O)C(=C)F)[C@@H](CC#N)C5)nc(OCC56CCCN5CCC6)nc4c3F)c12` [Compound 18B, 2-((2S)-4-(7-(8-ethynylnaphth-1-yl)-6,8-difluoro-2-((tetrahydro-1H-pyrrolizin-7a(5H)-yl)methoxy)quinazolin-4-yl)-1-(2-fluoroacryloyl)piperazin-2-yl)acetonitrile]: the GI50 in data set [1] was 12.8 nM; in data set [2] it was 8.92 nM; in data set [3], 4.89 nM; in data set [7], 29.9 nM. In addition, the figures for the IC50 in data set [4] and in data set [5] were 0.68 nM and 0.5 nM, respectively. This molecule also had a half-life in data set [6] of 44.2 min. For the same molecule, the microsomal CLint in data set [6] was found to be 35.6 µL/min/mg. In data set [6], the CLint scaled stood at 33 mL/min/kg.
Turning to `C=C(F)C(=O)N1CCN(c2nc(OC[C@@]34CCCN3C[C@H](F)C4)nc3c(F)c(-c4cc(O)cc5cccc(Cl)c45)ccc23)C[C@@H]1CC#N` [Compound 2], the GI50 was 70.1 nM in data set [1], 130 nM in data set [2], 18.9 nM in data set [3] and 93.9 nM in data set [7]. The IC50 was determined as 0.65 nM in data set [4] and 0.22 nM in data set [5]. In addition, the half-life in data set [6] amounted to 18.8 min. In addition, the microsomal CLint in data set [6] amounted to 73.7 µL/min/mg. The molecule also gave a CLint scaled in data set [6] of 66.3 mL/min/kg.
For the molecule `C#Cc1cccc2cccc(-c3ccc4c(N5CCN(C(=O)C(=C)F)[C@@H](CC#N)C5)nc(OCC56CCCN5CCC6)nc4c3F)c12` [Compound 11, (S)-2-(4-(7-(8-ethynylnaphth-1-yl)-8-fluoro-2-((tetrahydro-1H-pyrrolizin-7a(5H)-yl)methoxy)quinazolin-4-yl)-1-(2-fluoroacryloyl)piperazin-2-yl)acetonitrile], the GI50 in data set [1] came out at 62.6 nM; in data set [2] it was 56.7 nM; in data set [3] it was 25.7 nM; in data set [7], 69.4 nM. The IC50 in data set [4] came to 0.86 nM; in data set [5], 0.79 nM. In data set [6], this molecule yielded a half-life of 38.8 min. In data set [6], the microsomal CLint was 35.7 µL/min/mg. Further, the CLint scaled in data set [6] came out at 32.1 mL/min/kg.
Turning to `C#Cc1cccc2cc(O)cc(-c3c(F)cc4c(N5CCN(C(=O)C(=C)F)[C@@H](CC#N)C5)nc(OC[C@@]56CCCN5C[C@H](F)C6)nc4c3F)c12` [Compound 8A, 2-((2S)-4-(7-(8-ethynyl-3-hydroxynaphth-1-yl)-6,8-difluoro-2-(((2R,7aS)-2-fluorotetrahydro-1H-pyrrolizin-7a(5H)-yl)methoxy)quinazolin-4-yl)-1-(2-fluoroacryloyl)piperazin-2-yl)acetonitrile], the GI50 in data set [1] worked out at 17.8 nM; in data set [2], 11.6 nM; in data set [3] it was 3.44 nM; in data set [7], 33.3 nM. In addition, the IC50 came out at 0.58 nM in data set [4] and 0.24 nM in data set [5]. This molecule registered a half-life in data set [6] of 26.7 min. The microsomal CLint in data set [6] amounted to 53 µL/min/mg. The same molecule displayed a CLint scaled in data set [6] of 49.7 mL/min/kg.
`C#Cc1cccc2cc(O)cc(-c3c(F)cc4c(N5CCN(C(=O)C(=C)F)[C@@H](CC#N)C5)nc(OCC56CCCN5CCC6)nc4c3F)c12` [Compound 7A, 2-((2S)-4-(7-(8-ethynyl-3-hydroxynaphth-1-yl)-6,8-difluoro-2-((tetrahydro-1H-pyrrolizin-7a(5H)-yl)methoxy)quinazolin-4-yl)-1-(2-fluoroacryloyl)piperazin-2-yl)acetonitrile]: the GI50 in data set [1] was 16.8 nM; in data set [2] it was 9.03 nM; in data set [3] it was 5.28 nM; in data set [7], 34.6 nM. Moreover, the IC50 in data set [4] came to 0.6 nM; in data set [5], 0.62 nM. In data set [6], this molecule displayed a half-life of 38.4 min. Moreover, in data set [6], the microsomal CLint came out at 36.1 µL/min/mg. The same molecule displayed a CLint scaled in data set [6] of 32.5 mL/min/kg.

What is called IC50 is the concentration that gives 50% inhibition. For orientation: half-life means the time in which the quantity being followed falls by half. Read a high half-life as slow decline. In general, CLint scaled refers to the capacity of the preparation to metabolise the compound, expressed as a volume cleared per time.
